In patent publication US20260209210A1, “NEW SUBSTITUTED INDOLE-2-CARBOXAMIDES AS PHGDH INHIBITORS” (Boehringer Ingelheim International GmbH, priority 2022, published 2026):

Tests used:
[1] = Drug transport across human Caco-2 cells (permeability); assay type: in vitro ADME; conditions: pH 7.2, 37° C.; for efflux ratio: PEBA/PEAB, Caco-2 monolayers; for Papp A→B: apical-to-basal (absorptive) apparent permeability across Caco-2 monolayers, read-out: PEAB; for Papp B→A: basal-to-apical (secretory) apparent permeability across Caco-2 monolayers, read-out: PEBA
Procedure: The assay provides information on the potential of a compound to pass the cell membrane, on the extent of oral absorption as well as on whether the compound is actively transported by uptake and/or efflux transporters. Permeability measurements across polarized, confluent Caco-2 cell monolayers grown on permeable filter supports are used as the in vitro absorption model. Apparent permeability coefficients (PE) of the compounds across the Caco-2 monolayers are measured (pH 7.2, 37° C.) in apical-to-basal (AB) (absorptive) and basal-to-apical (BA) (secretory) transport direction. AB permeability (PEAB) represents drug absorption from the intestine into the blood and BA permeability (PEBA) drug secretion from the blood back into the intestine via both passive permeability as well as active transport mechanisms mediated by efflux and uptake transporters that are expressed on the Caco-2 cells. The compounds are assigned to permeability/absorption classes by comparison of the AB permeabilities with the AB permeabilities of reference compounds with known in vitro permeability and oral absorption in the human. Identical or similar permeabilities in both transport directions indicate passive permeation, vectorial permeability points to additional active transport mechanisms. […] Active transport is concentration-dependently saturable.
Caco-2 cells obtained from the Leibniz Institute DSMZ-German Collection of Microorganisms and Cell Cultures GmbH (1-2×10^5 cells/1 cm^2 area) are seeded on filter inserts (Costar transwell polycarbonate or PET filters, 0.4 μm pore size) and cultured (DMEM) for 10 to 25 days. Compounds are dissolved in appropriate solvent (like DMSO, 1-20 mM stock solutions). Stock solutions are diluted with HTP-4 buffer (128.13 mM NaCl, 5.36 mM KCl, 1 mM MgSO4, 1.8 mM CaCl2), 4.17 mM NaHCO3, 1.19 mM Na2HPO4×7H2O, 0.41 mM NaH2PO4×H2O, 15 mM HEPES, 20 mM glucose, pH 7.2) containing 0.25% BSA to prepare the transport solutions (0.1-300 μM compound, final DMSO≤0.5%). The transport solution (TL) is applied to the apical or basolateral donor side for measuring A-B or B-A permeability (3 filter replicates), respectively. The receiver side contains HTP-4 buffer supplemented with 0.25% BSA. Samples are collected at the start and end of experiment from the donor and at various time intervals (0, 30, 60, and 90 minutes) for up to 2 hours also from the receiver side for concentration measurement by HPLC-MS/MS or scintillation counting. Sampled receiver volumes are replaced with fresh receiver solution. Compounds are assigned to the following permeability/oral absorption classes: • Very low: […] • Low: 1×10^−7 cm/s<PEAB<6×10^−7 cm/sec • Moderate: 6×10^−7 cm/sec<PEAB<5×10^−6 cm/sec • Good: 5×10^−6 cm/s<[…]
Compounds are classified with respect to (permeability) efflux ratios (PEBA/PEAB) given below whether they are likely to be actively transported: • no: 0.67<=ratio <=1.5 • probable (active efflux): 1.5<ratio <=2 • probable (active uptake): […] • yes (active efflux): 2<ratio • yes (active uptake): ratio <0.5

PHGDH = target: T1, PHGDH (Homo sapiens, UniProt O43175); assay: 3-Phosphoglycerate dehydrogenase (PHGDH) Fluorescence Intensity Assay; assay type: biochemical; conditions: full length recombinant PHGDH, 500 μM NAD and 500 μM 3-PG, 240 minutes incubation, room temperature
T1 construct: The full length version of PHGDH enzyme was expressed in BL21 (DE3) E. coli; HIS-tag (N); TEV cleavage site (N); made in house; host or cells: E. coli BL21 (DE3)
T1 sequence (O43175 1-533): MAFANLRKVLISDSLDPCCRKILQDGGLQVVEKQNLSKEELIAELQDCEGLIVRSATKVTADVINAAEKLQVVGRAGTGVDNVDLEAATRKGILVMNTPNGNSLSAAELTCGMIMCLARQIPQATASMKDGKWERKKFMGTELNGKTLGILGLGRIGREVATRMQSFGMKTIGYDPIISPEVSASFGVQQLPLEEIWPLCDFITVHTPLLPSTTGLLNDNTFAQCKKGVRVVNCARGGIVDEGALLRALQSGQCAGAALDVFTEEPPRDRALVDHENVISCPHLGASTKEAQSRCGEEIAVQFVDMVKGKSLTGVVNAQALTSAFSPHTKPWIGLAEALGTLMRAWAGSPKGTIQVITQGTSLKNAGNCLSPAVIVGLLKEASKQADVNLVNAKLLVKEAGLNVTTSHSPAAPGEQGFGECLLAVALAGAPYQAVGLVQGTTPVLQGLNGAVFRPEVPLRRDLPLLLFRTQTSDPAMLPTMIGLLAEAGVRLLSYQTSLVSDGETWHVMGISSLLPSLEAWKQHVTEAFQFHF
Description: 3-Phosphoglycerate dehydrogenase (PHGDH) Fluorescence Intensity Assay This assay is used to identify compounds which inhibit the enzymatic activity of PHGDH which catalyzes the reaction of 3-Phosphoglycerate (3-PG) and NAD to 3-Phosphohydroxypyruvate and NADH.
The produced NADH is used in a coupled reaction for Diaphorase mediated reduction of Resazurin to Resorufin which can be measured in a Fluorescence Intensity readout.
The full length version of PHGDH enzyme was expressed in BL21 (DE3) E. coli through transformation with a plasmid containing the PHGDH cDNA with an N-terminal HIS-tag and a TEV cleavage site. The recombinant protein was then isolated with Ni-NTA beads and eluted on MONO Q ion exchange chromatography columns. The fractions corresponding to PHGDH were de-salted and concentrated to be used in the biochemical assay.
The 3-phosphoglycerate substrate was purchased from Sigma. NAD, Diaphorase and Resazurin were purchased from Sigma Aldrich.
Compounds are dispensed onto assay plates (black, low volume, flat bottom 384 well, Corning) using an Access Labcyte Workstation with the Labcyte Echo 55× from a DMSO solution. For the chosen highest assay concentration of 100 μM, 150 nl of compound solution are transferred from a 10 mM DMSO compound stock solution. A series of 11 concentrations (10 1:5 steps) is transferred for each compound.
DMSO is added such that every well has a total of 150 nl compound solution.
The assay has been performed using 500 μM NAD and 500 μM 3-PG (final assay concentrations).
5 μl of PHGDH protein (final assay concentration 100 ng/ml) in assay buffer (125 mM Tris-HCl, pH 7.5; 56.25 mM hydrazine sulfate pH 9.0; 2.5 mM EDTA; assay specific NAD concentration; 0.0125% Tween20) are added to the 150 nl of compounds.
10 μl of a mix containing assay specific 3-PG concentration (500 μM), Resazurin (25 µM final assay concentration) and Diaphorase (35 μg/ml final assay concentration) are added. Plates are kept at room temperature. After 240 minutes incubation time the fluorescence signal is measured in a PerkinElmer Envision HTS Multilabel Reader with an excitation wavelength at 530-560 nm and an emission wavelength at 590 nm.
Each plate contains negative controls (diluted DMSO instead of test compound; reaction as described with PHGDH protein) and positive controls (diluted DMSO instead of test compound; reaction as described with buffer instead of PHGDH protein). Negative and positive control values are used for normalization.
A known inhibitor of PHGDH activity is used as internal control.
IC50 values are calculated and analyzed in the MEGALAB IC50 application using a 4 parametric logistic model.

SMILES	efflux ratio [1]	Papp A→B [1]	Papp B→A [1]	IC50 (PHGDH)
Cc1cc2c(cc(C(=O)N[C@H](C)c3ccc(C4(C(=O)O)CCOCC4)cc3)n2C)c(Cl)c1Cl [Example 1]	0.9	17.1 ×10⁻⁶ cm/s	14.6 ×10⁻⁶ cm/s	6 nM
Cc1cc2c(cc(C(=O)N[C@H](C)c3ccc(C4(C(=O)O)CCOCC4)cc3)n2C)c(Cl)c1F [Example 3]	0.6	16 ×10⁻⁶ cm/s	9.1 ×10⁻⁶ cm/s	10 nM
Cc1cc2c(cc(C(=O)N[C@H](C)c3ccc(C4(C(=O)O)CCOCC4)cc3)n2C)c(F)c1Cl [Example 2]	1.2	11 ×10⁻⁶ cm/s	13 ×10⁻⁶ cm/s	27 nM
Cc1cc2c(cc(C(=O)N[C@H](C)c3ccc(C4(C(=O)O)CCOCC4)cc3)n2C)c(F)c1F [Example 4]	0.8	12 ×10⁻⁶ cm/s	9.2 ×10⁻⁶ cm/s	31 nM
Cc1cc2c(cc1Cl)cc(C(=O)N[C@H](C)c1ccc(C3(C(=O)O)CCOCC3)cc1)n2C [Example 6]	1.1	7.9 ×10⁻⁶ cm/s	8.4 ×10⁻⁶ cm/s	943 nM

Further lines, results first:

efflux ratio [1]	Papp A→B [1]	Papp B→A [1]	IC50 (PHGDH)	SMILES
1.2	10 ×10⁻⁶ cm/s	12 ×10⁻⁶ cm/s	25 nM	Cc1cc(Cl)c2cc(C(=O)N[C@H](C)c3ccc(C4(C(=O)O)CCOCC4)cc3)n(C)c2c1 [Example 5]
17	0.1 ×10⁻⁶ cm/s	1.7 ×10⁻⁶ cm/s	–	Cc1cc(Cl)c2cc(C(=O)N[C@H](C)c3ccc(S(=O)(=O)C4(C(=O)O)CC4)cc3)n(C)c2c1 [Comp-3, reference compound]
1.8	0.2 ×10⁻⁶ cm/s	0.4 ×10⁻⁶ cm/s	–	Cc1cc(Cl)c2cc(C(=O)N[C@H](C)c3ccc(S(=O)(=O)C4(C(=O)O)CCCC4)cc3)n(C)c2c1 [Comp-2, reference compound]
–	< 0.4 ×10⁻⁶ cm/s	0.2 ×10⁻⁶ cm/s	–	Cc1cc(Cl)c2cc(C(=O)N[C@H](C)c3ccc(S(=O)(=O)C4(C(=O)O)CCOCC4)cc3)n(C)c2c1 [Comp-1, reference compound]
